Laboratory results: ChEMBL document CHEMBL1201862, “PubChem BioAssay data set” (2004)
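1) Cells in 96-well plates. 2) Compound, 48 h, 5 concentrations. 3) Linear interpolation between surrounding doses. 4) Unreached endpoint = highest concentration. GI50 = concentration required for 50% inhibition of growth.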 The source made the active and inactive calls. Cut-off read from the data, not from the text of the source: active = GI50 up to about 1.1 µM and inactive = higher.

How the values were obtained:
Assay in all cases: NCI anticancer screen, dose series, 48 h
DU-145 = tested on: DU-145
XF498 = tested on: XF498
MDA-MB-435 = tested on: MDA-MB-435
BT-549 = tested on: BT-549
MDA-MB-231 = tested on: MDA-MB-231
KM-20L2 = tested on: KM-20L2
LXFL 529 = tested on: LXFL 529
RXF 631 = tested on: RXF 631
DMS-114 = tested on: DMS-114

Measured: GI50

CC1=C(C(=O)Nc2ccc(Cl)c(C(=O)OC(C)C)c2)SCCO1
inactive: DU-145 > 100 µM | XF498 62.4 µM | MDA-MB-435 > 100 µM | BT-549 > 100 µM | MDA-MB-231 > 100 µM | KM-20L2 33.9 µM

COCCOCOC(C)(C)[C@H](CCO)O[Si](c1ccccc1)(c1ccccc1)C(C)(C)C
inactive: LXFL 529 9.95 µM | XF498 3.18 µM | RXF 631 5.85 µM | KM-20L2 11.8 µM

CCCCN(CCCC)c1ccc(/N=N/c2ccc(S(=O)(=O)O)cc2)cc1
inactive: DU-145 39.2 µM | MDA-MB-435 57.9 µM | BT-549 35.2 µM | MDA-MB-231 25.4 µM

O=C(NN1C(=O)CS(=O)(=O)C1c1ccc(C(F)(F)F)cc1)c1ccncc1 (stereo not given)
inactive: LXFL 529 > 100 µM | XF498 > 100 µM | DMS-114 > 100 µM

CCOC(=O)C1=CC(C)(C(=O)OCC)Nc2c(nc(OC)n(C)c2=O)N1 (stereo not given)
inactive: DU-145 > 10 µM | MDA-MB-435 > 10 µM | BT-549 > 10 µM | MDA-MB-231 > 10 µM

CCOC(=O)c1c(SC(=O)c2ccc(Cl)cc2)n(-c2ccccc2)c(=S)n(-c2ccccc2)c1=O
inactive: DU-145 > 100 µM | MDA-MB-435 > 100 µM | MDA-MB-231 > 100 µM

O=C(Nc1nccs1)c1cc(C2=CC=CC([N+](=O)[O-])C=C2)nc(S)n1 (stereo not given)
inactive: LXFL 529 > 100 µM | DMS-114 > 100 µM | KM-20L2 > 100 µM

CN1CCN(Cn2nc(COc3ccc(Cl)cc3)n(/N=C/c3ccc(-c4ccc(Cl)cc4Cl)o3)c2=S)CC1
inactive: DU-145 11.9 µM | MDA-MB-435 2.55 µM | MDA-MB-231 7 µM

CC1(C)N/C(=C\C=O)C(C)(C)N1O
inactive: DU-145 > 100 µM | MDA-MB-435 > 100 µM | MDA-MB-231 > 100 µM

CN1C(=O)NC(=O)/C(=C\Nc2ncccn2)C1=O
inactive: DU-145 > 100 µM | MDA-MB-435 > 100 µM | MDA-MB-231 > 100 µM

O=C(OC(=O)n1ccc2ccccc21)n1ccc2ccccc21
inactive: XF498 > 100 µM | DMS-114 > 100 µM | KM-20L2 > 100 µM

COc1cc2c(cc1OC)C(Cc1c3ccccc3cc3ccccc13)N(C)CC2 (stereo not given)
inactive: XF498 18.4 µM | KM-20L2 15.2 µM

COc1ccc(-c2c(C#N)c(NC(=S)NC(=O)c3ccccc3)nc3c2CCCC3)cc1OC
inactive: DU-145 > 100 µM | MDA-MB-435 66.1 µM | BT-549 > 100 µM | MDA-MB-231 34.7 µM

CC1(C)CCc2ccc(OCCC(=O)O)cc2O1
inactive: LXFL 529 > 100 µM | DMS-114 > 100 µM

CCOC(=O)/C=C(/C)Nc1nc2c(c(C(=O)OC)c1C#N)CCCC2
inactive: DU-145 > 100 µM | MDA-MB-435 > 100 µM | BT-549 > 100 µM | MDA-MB-231 > 100 µM

CCOc1cc(C(=O)O)c2c(ccc3ccc(OC)c(OC)c32)c1OC
inactive: DU-145 > 100 µM | MDA-MB-435 > 100 µM | BT-549 > 100 µM | MDA-MB-231 > 100 µM
